Read-outs that look alike come from different tables or passages of the source.
Assays:
Format in all cases: in vivo
Details in all cases: 144 h, read-out: mortality rate
[1] = test system: diamondback moth [コナガ(Plutella xylostella)]; assay: 試験例1 コナガに対する殺虫試験 (insecticidal test, 2nd instar larvae)
[2] = test system: common cutworm [ハスモンヨトウ(Spodoptera litura)]; assay: 試験例2 ハスモンヨトウに対する殺虫試験 (insecticidal test, 2nd instar larvae)
[3] = test system: oriental tea tortrix [チャハマキ(Homona magnanima)]; assay: 試験例3 チャハマキに対する殺虫試験 (insecticidal test, 2nd instar larvae)
[4] = test system: cucurbit leaf beetle [ウリハムシ(Aulacophora femoralis)]; assay: 試験例4 ウリハムシに対する殺虫試験 (insecticidal test, 2nd instar larvae)
[5] = 100 ppm, leaf dip, 2nd instar, 6 days, 25℃

Row | SMILES | mortality at 100 ppm [1] | mortality at 100 ppm [2] | mortality at 100 ppm [3] | mortality at 500 ppm [4] | mortality at 100 ppm [1, 5] | mortality at 100 ppm [2, 5] | mortality at 100 ppm [3, 5] | mortality at 500 ppm ([4]; 500 ppm, leaf dip, 2nd instar, 6 days, 25℃)
1 | Cc1cc(C(O)(c2ccc(OC(F)(F)F)cc2)C(F)(F)F)ccc1NC(=O)c1cccc(I)c1C(=O)NC(C)C (centres unmarked) [1-009] | 100% | ≥ 80% | ≥ 80% | 100% | – | – | – | –
2 | Cc1cc(C(O)(c2ccc(OC(F)(F)Br)cc2)C(F)(F)F)ccc1NC(=O)c1cccc(I)c1C(=O)NC(C)C (centres unmarked) [1-010] | – | – | – | – | 100% | ≥ 80% | ≥ 80% | 100%
3 | Cc1cc(C(O)(c2ccc(OS(C)(=O)=O)cc2)C(F)(F)F)ccc1NC(=O)c1cccc(I)c1C(=O)NC(C)C (centres unmarked) [1-015] | 100% | ≥ 80% | – | – | – | – | – | –
4 | Cc1cc(C(O)(c2ccc3c(c2)OC(F)(F)C(F)(F)O3)C(F)(F)F)ccc1NC(=O)c1cccc(I)c1C(=O)NC(C)C (centres unmarked) [1-028] | 100% | ≥ 80% | ≥ 80% | 100% | – | – | – | –
5 | Cc1cc(C(C)(O)c2ccc(C(F)(F)F)cn2)ccc1NC(=O)c1cccc(I)c1C(=O)NC(C)C (centres unmarked) [2-001] | 100% | ≥ 80% | – | 100% | – | – | – | –
6 | Cc1cc(C(O)(COc2ccc(Cl)cc2)C(F)(F)F)ccc1NC(=O)c1cccc(I)c1C(=O)NC(C)C (centres unmarked) [2-004] | 100% | ≥ 80% | – | 100% | – | – | – | –
7 | Cc1cc(C(O)(C(F)(F)F)C(F)(F)Oc2ccc(Cl)cc2)ccc1NC(=O)c1cccc(I)c1C(=O)NC(C)C (centres unmarked) [2-008] | 100% | ≥ 80% | ≥ 80% | 100% | – | – | – | –
8 | Cc1cc(C(O)(C=Cc2ccc(Cl)cc2)C(F)(F)F)ccc1NC(=O)c1cccc(I)c1C(=O)NC(C)C (centres unmarked) [2-018] | 100% | ≥ 80% | ≥ 80% | 100% | – | – | – | –
9 | COC(c1ccc(Cl)cc1)(c1ccc(NC(=O)c2cccc(I)c2C(=O)NC(C)C)c(C)c1)C(F)(F)F (centres unmarked) [3-002] | 100% | ≥ 80% | ≥ 80% | – | – | – | – | –
10 | Cc1cc2c(cc1NC(=O)c1cccc(I)c1C(=O)NC(C)C)OC(F)(F)C2(O)C(F)(F)F (centres unmarked) [4-002] | 100% | ≥ 80% | ≥ 80% | 100% | – | – | – | –

— patent JP2006306850A, “置換ベンズアニリド化合物及び有害生物防除剤” (priority 2005, dated 2006)
